Here are results for one molecule from patent US11723907B2, “Anti-aging compounds” (THE CLEVELAND CLINIC FOUNDATION, priority 2017, dated 2023).

The experiment relates to global protein disulfide bonds. Kind of experiment: Global protein disulfide bonds (Elman's reagent, biotin-switch assay). It counts as cell-based. Particulars: Elman's reagent or biotin-switch assay. From the text: FIGS. 3A-3C provide graphs and schemes showing the preliminary data that directed the plan to find the mechanism of action of identified anti-aging compounds. (A) Substantial decrease in oxidized sulfhydryl groups were detected after several days of treatment with VA. […] The inventors decided to check if VA can participate in catalytic reactions performed by the enzymes involved in generation of reductive potential or its utilization by transferring the electrons to oxidized disulfide bonds t. […] In particular, catalytic reduction of molecular oxygen and cytochrome c was observed. Therefore, the inventors decided to take into account the most prominent enzymes that were noted to be involved into initiation or prevention aging-like traits.
Based on results obtained on tissue cultured cells (increased RLS) and an increase in the numbers of HSC surrogate cells (LTC-IC or CFU), the inventors set their future goal to develop a novel pharmacological treatment for AA patients and potentially for other BMF. […] The only persistent effect of VA was considerable reduction in global protein disulfide bonds (up to 30%) detected by Elman's reagent or direct labelling of reduced sulfhydryl groups with biotin-switch assay (FIG. 3A). […]

For `O=C1NC(=O)C(=NO)C(=O)N1` [VA, 2,4,5,6(1H,3H)-pyrimidine-tetrone 5-oxime], the “reduction in global protein disulfide bonds” value is given as “up to 30%”.
